Source: patent publication US4874773A, “3-Aminocarbonyl-1,4-dihydropyridine-5-carboxylic acid compounds, and pharmaceutical composition containing the same” (priority 1985, dated 1989)
“Also recorded” adds a separate entry of the source. Read-outs that look alike come from different tables or passages of the source.

How the values were obtained:
isolated aorta = assay: Experiment 3 Relaxing activity on the isolated aorta (30 mM KCl contracted); design: species or system Japanese white rabbit; conditions: for EC50: Oryctolagus cuniculus, read-out: EC50 (concentration for 50% relaxation); for relaxing / vasodilating activity on isolated aorta (in words): Table 8, comparison with nifedipine and nicardipine hydrochloride, etc. where stated
Protocol: Japanese white rabbit (weighing 2.3-2.7 kg) was sacrificed by bleeding from common carotid artery. Immediately, the aorta was isolated and cut into a sprial strip. The strip preparation was vertically suspended under a resting tension of 2.0 g in a tissue bath containing 20 ml of modified Ringer solution while bubbling with a mixture of 95% O2 +5% CO2 by connecting one end of the strip to a lever of the above-mentioned FD pick up. The aortic strip was contracted with 30 mM KCl. When the contraction became constant, the test compound was accumulatively administered, and the relaxing effect was measured. After the final treatment, 10^-4T M papaverine was administered and the maximum relaxation obtained thereby was taken as 100%. In comparison with the maximum relaxation obtained by papaverine, the rate of relaxation by the test compounds was evaluated, and the concentration of the test compounds for obtaining 50% relaxation (EC50) was calculated.
The test compound was dissolved in ethanol, and the solution was diluted in 100 to 1×10^4 folds with a nutrient solution, and the diluted solution was administered.

[1] = system: Spontaneously hypertensive male rats; assay: Experiment 1-2 Hypotensive activity (oral, 8 hours); type: in vivo, rat; conditions: for hypotensive activity (in words): Table 5, comparison with nifedipine and nicardipine hydrochloride where stated
Protocol: Spontaneously hypertensive male rats (13-15 week age, one group: 3 rats) were used. […] The rats were fixed in a Howlman cage without fasting, and the femoral arterial pressure was measured by a direct method without anesthesia with a cannula which was previously inserted into the femoral artery of the animal, via a pressure transducer (MPU-0.5, manufactured by Nippon Koden K.K.). The test compounds were orally administered in the form of a suspension in 0.5% methyl cellulose solution in a dose of 10 mg/kg (in some compounds, 3 mg/kg). In the control group, only 0.5% methyl cellulose solution was administered likewise. The blood pressure was measured for 5 hours after the administration of test compounds.
The hypotensive activity was measured in the same manner as described in Experiment 1-1 except that the rats were used in 3-5 rats per each group, and the test compounds were administered in a dose of 1 mg/kg (some compounds, 3 mg/kg), and the blood pressure was measured for 8 hours after the administration of test compounds.

isolated heart [2] = assay: Experiment 2-2 Activity onto the isolated heart (with duration); design: species or system Japanese white rabbit; conditions: for Coronary perfusion Duration: time until perfusion volume returned to initial level; for activation at 3 µg/heart / inhibition at 3 µg/heart / activation at 1 µg/heart / inhibition at 1 µg/heart: Oryctolagus cuniculus; for activation at 3 µg/heart / activation at 1 µg/heart: read-out: Coronary perfusion Increase
Protocol: Japanese white rabbit (weighing 2.2-2.5 kg) was anesthetized by introvenous injection of nembutal (20 mg/kg) and then sacrificed by bleeding from common carotid artery. […] There were measured the perfusion volume with a drop-counting meter (ET-600G type, manufactured by Nippon Koden K.K.) and the heart pulse and the contractility via a force-displacement transducer (FD pick up, SB-IT type, manufactured by Nippon Koden K.K.) (for measuring heart pulse, an instant pulse meter (AT-601G type, minufactured by Nippon Koden K.K.) being further used).
The test compounds were dissolved in ethanol, and the solution was diluted in 100-fold with purified water, and the diluted solution was administered in an amount of 0.1 ml/heart (i.e. 3 μg/heart).
The activity was measured in the same manner as described in Experiment 2-1 except that in some test compounds, the dose was in 1 μg/heart. Besides, the duration of the activity was evaluated by counting the time until the coronary perfusion volume became to the initial level before the administration of the test compound.

[3] = system: Spontaneously hypertensive male rats; assay: Experiment 1-1 Hypotensive activity (oral, conscious spontaneously hypertensive rats); type: in vivo, rat; conditions: for Maximum hypotension: mean blood pressure; for hypotensive activity (in words): Table 4, comparison with nifedipine and nicardipine hydrochloride where stated
isolated heart [4] = assay: Experiment 2-1 Activity on isolated heart; design: species or system Japanese white rabbit; conditions: for activation at 3 µg/heart / inhibition at 3 µg/heart, 3 µg/heart / inhibition at 3 µg/heart: Oryctolagus cuniculus, 3 μg/heart; for activation at 3 µg/heart: read-out: Increase of coronary perfusion; for inhibition at 3 µg/heart, 3 µg/heart: read-out: Inhibitory rate of systole; for inhibition at 3 µg/heart: read-out: Reducing rate of heart pulse
Protocol: Japanese white rabbit (weighing 2.2-2.5 kg) was anesthetized by introvenous injection of nembutal (20 mg/kg) and then sacrificed by bleeding from common carotid artery. […] After stabilizing the heart preparation for 90 minutes, the test compound was administered. There were measured the perfusion volume with a drop-counting meter (ET-600G type, manufactured by Nippon Koden K.K.) and the heart pulse and the contractility via a force-displacement transducer (FD pick up, SB-IT type, manufactured by Nippon Koden K.K.) (for measuring heart pulse, an instant pulse meter (AT-601G type, minufactured by Nippon Koden K.K.) being further used).

[5] = Experiment 4-1 Acute toxicity; conditions: rat, in vivo; oral, male rats, 5 week age, 7 days
Source text: Wistar male rats (5 week age, weighing 105-135 g) were used. The compounds of Example Nos. 2, 3 and 7 were each orally administered to the animals in the form of a suspension in 0.5% methyl cellulose solution.

[6] = Experiment 4-2 Acute toxicity, rats; conditions: rat, in vivo, po, 4 week age, 7 days
Source text: Wistar male and female rats (4 week age) and ddy male and female mice (4 week age) were used. The compounds of Example Nos. 82 and 83 were each orally administered to […].

[7] = 3 μg/heart, read-out: Inhibitory rate of systole
[8] = 3 μg/heart, read-out: Reducing rate of heart pulse
[9] = 30 mM KCl contraction, maximum relaxation by papaverine = 100%
[10] = 1 μg/heart, read-out: Inhibitory rate of systole
[11] = 1 μg/heart, read-out: Reducing rate of heart pulse

SMILES | Maximum hypotension ([1]; 1 mg/kg oral) | Recovering time ([1]; 1 mg/kg oral) | Time for recovering 1/2 of max. hypotension ([1]; 1 mg/kg oral) | Time until reaching to max. hypotension ([1]; 1 mg/kg oral) | Coronary perfusion Duration (isolated heart [2]; 3 μg/heart) | Recovering time ([3]; 10 mg/kg oral) | Time for recovering 1/2 of max. hypotension ([3]; 10 mg/kg oral) | Time until reaching to max. hypotension ([3]; 10 mg/kg oral) | Maximum hypotension ([3]; 10 mg/kg oral) | activation at 3 µg/heart (isolated heart [4]) | inhibition at 3 µg/heart, 3 µg/heart (isolated heart [4]) | inhibition at 3 µg/heart (isolated heart [4]) | EC50 (isolated aorta; [9]) | relaxing / vasodilating activity on isolated aorta (in words) (isolated aorta) | LD50 at 168 h [5] | hypotensive activity (in words) [1] | further results
COC(=O)C1=C(C)NC(C)=C(C(=O)OC)C1c1ccccc1[N+](=O)[O-] [Compound A, dimethyl 1,4-dihydro-2,6-dimethyl-4-(2-nitophenyl)3,5-pyridinedicarboxylate, reference compound] | 55 mmHg | 3.0 to 4.0 h | 2.0 h | 30 min | < 10 min | 4.0 h | 1.5 h | 15 min | 49 mmHg | 40% | 35% | 10% |  |  |  |  | EC50 (isolated aorta): 41 nM; activation at 3 µg/heart (isolated heart [2]; 3 μg/heart): 40%; inhibition at 3 µg/heart (isolated heart [2]; [7]): 35%; inhibition at 3 µg/heart (isolated heart [2]; [8]): 10%
COC(=O)C1=C(C)NC(C)=C(C(=O)OCCN(C)Cc2ccccc2)C1c1cccc([N+](=O)[O-])c1.Cl (centres unmarked) [Compound B, methyl, N-benzyl-N-methylaminoethyl 1,4-dihydro-2,6-dimethyl-4-(3-nitrophenyl)-3,5-pyridinedicarboxylate hydrochloride, reference compound] |  |  |  |  | < 10 min | > 5.0 h | > 5.0 h | 15 min | 57 mmHg | 15% | 10% | 5% | 19 nM |  |  |  | Maximum hypotension ([1]; 3 mg/kg oral): 27 mmHg; Recovering time ([1]; 3 mg/kg oral): 3.0 to 4.0 h; Time for recovering 1/2 of max. hypotension ([1]; 3 mg/kg oral): 2.0 h; Time until reaching to max. hypotension ([1]; 3 mg/kg oral): 30 min; activation at 3 µg/heart (isolated heart [2]; 3 μg/heart): 15%; inhibition at 3 µg/heart (isolated heart [2]; [7]): 10%; inhibition at 3 µg/heart (isolated heart [2]; [8]): 5%
CCCCCCCCOC(=O)C1=C(C)NC(C)=C(C(=O)NC(C)C)C1c1ccccc1[N+](=O)[O-] (centres unmarked) [Example 2, n-octyl 2,6-dimethyl-3-isopropylaminocarbonyl-4-(o-nitrophenyl)-1,4-dihydropyridine-5-carboxylate] |  |  |  |  |  |  |  |  |  | 17% | 50% | 25% | 300 nM | somewhat weak vasodilating activity | 10 to 100 mg/kg |  | Recovering time ([3]; 3 mg/kg oral): > 5.0 h; Time for recovering 1/2 of max. hypotension ([3]; 3 mg/kg oral): 5.0 h; Time until reaching to max. hypotension ([3]; 3 mg/kg oral): 30 min; Maximum hypotension ([3]; 3 mg/kg oral): 55 mmHg; hypotensive activity (in words) [3]: the same or more potent activity with longer duration; also recorded: potent hypotensive activity; inhibitions on the heart pulse and contactility (in words) (isolated heart [4]; Table 6): moderate inhibitions on the heart pulse and contactility
CCCCCCCCCOC(=O)C1=C(C)NC(C)=C(C(=O)NC(C)C)C1c1ccccc1[N+](=O)[O-] (centres unmarked) [Example 3, n-nonyl 2,6-dimethyl-3-isopropylaminocarbonyl-4-(o-nitrophenyl)-1,4-dihydropyridine-5-carboxylate] |  |  |  |  |  | > 5.0 h | > 5.0 h | 30 min | 91 mmHg | 40% | 55% | 20% | 180 nM |  | 500 to 1000 mg/kg |  | Recovering time ([3]; 3 mg/kg oral): > 5.0 h; Time for recovering 1/2 of max. hypotension ([3]; 3 mg/kg oral): > 5.0 h; Time until reaching to max. hypotension ([3]; 3 mg/kg oral): 30 min; Maximum hypotension ([3]; 3 mg/kg oral): 60 mmHg
CCCCCCOC(=O)C1=C(C)NC(C)=C(C(=O)NC(C)C)C1c1ccccc1[N+](=O)[O-] (centres unmarked) [Example 7, n-hexyl 2,6-dimethyl-3-isopropylaminocarbonyl-4-(o-nitrophenyl)-1,4-dihydropyridine-5-carboxylate] |  |  |  |  |  | > 5.0 h | 5.0 h | 30 min | 45 mmHg | 45% | 30% | 25% | 130 nM | somewhat weak vasodilating activity | > 1000 mg/kg |  | hypotensive activity (in words) [3]: the same or more potent activity with longer duration; also recorded: potent hypotensive activity; inhibitions on the heart pulse and contactility (in words) (isolated heart [4]; Table 6): moderate inhibitions on the heart pulse and contactility; coronary vasodilating activity (in words) (isolated heart [4]; Table 6, comparison with nifedipine and nicardipine hydrochloride, etc.): the same or more potent coronary vasodilating activity with longer duration
C#CCNC(=O)C1=C(C)NC(C)=C(C(=O)OCCCCCCCC)C1c1ccccc1[N+](=O)[O-] (centres unmarked) [Example 78, n-octyl 2,6-dimethyl-3-propargylaminocarbonyl-4-(o-nitrophenyl)-1,4-dihydropyridine-5-carboxylate] | 33 mmHg | 5.0 h | 3.0 h | 60 min |  |  |  |  |  |  |  |  |  |  |  | the same or more potent hypotensive activity with longer duration | Coronary perfusion Duration (isolated heart [2]; 1 μg/heart): 60 min; activation at 1 µg/heart (isolated heart [2]; 1 μg/heart): 55%; inhibition at 1 µg/heart (isolated heart [2]; [10]): 35%; inhibition at 1 µg/heart (isolated heart [2]; [11]): 10%
C#CCNC(=O)C1=C(C)NC(C)=C(C(=O)OCCCCCCCCC)C1c1ccccc1[N+](=O)[O-] (centres unmarked) [Example 79, n-nonyl 2,6-dimethyl-3-propargylaminocarbonyl-4-(o-nitrophenyl)-1,4-dihydropyridine-5-carboxylate] | 45 mmHg | 5.0 h | 3.0 h | 60 min |  |  |  |  |  |  |  |  |  |  |  | the same or more potent hypotensive activity with longer duration | Coronary perfusion Duration (isolated heart [2]; 1 μg/heart): 60 min; activation at 1 µg/heart (isolated heart [2]; 1 μg/heart): 50%; inhibition at 1 µg/heart (isolated heart [2]; [10]): 40%; inhibition at 1 µg/heart (isolated heart [2]; [11]): 30%
CCCCCCCCCOC(=O)C1=C(C)NC(C)=C(C(=O)NC2CC2)C1c1ccccc1[N+](=O)[O-] (centres unmarked) [Example 83, n-nonyl 2,6-dimethyl-3-cyclopropylaminocarbonyl-4-(o-nitrophenyl)-1,4-dihydropyridine-5-carboxylate] | 61 mmHg | > 8.0 h | > 8.0 h | 180 min | > 120 min |  |  |  |  |  |  |  |  | somewhat weak vasodilating activity |  | the same or more potent hypotensive activity with longer duration; also recorded: potent hypotensive activity | EC50 (isolated aorta): 290 nM; LD50 at 168 h ([6]; female rats): ≤ 10 mg/kg; LD50 at 168 h ([6]; male rats): 100 to 500 mg/kg; activation at 3 µg/heart (isolated heart [2]): 42%; inhibition at 3 µg/heart (isolated heart [2]; read-out: Inhibitory rate of systole): 50%; inhibition at 3 µg/heart (isolated heart [2]; read-out: Reducing rate of heart pulse): 20%
